Assay results: publication PMC12355554, “Development of novel mitochondrial pyruvate carrier inhibitors for breast cancer treatment” (The Journal of Biological Chemistry, 2025)
Read-outs that look alike come from different tables or passages of the source.

What was measured:
[1] = system: succinate-driven respiration in 4T1 cells; assay: Seahorse succinate-driven respiration in permeabilized 4T1 cells; assay type: cell-based, murine; conditions: candidate compounds 1 μM
Excerpt: (§1) Although our initial experiments and previous literature illustrate the ability of the candidate compounds to inhibit Pyr-driven respiration, we sought to investigate the ability of candidate compounds to inhibit respiration fueled by other metabolic substrates, glutamate and succinate (Fig. 2). Glutamate, similar to Pyr oxidation, results in NADH equivalents that fuel complex I-mediated respiration, and succinate metabolism offers FADH2 for electrons in complex II-driven respiratory processes. […] To further validate the mode of action of the candidate compounds, a series of similar Seahorse experiments were employed (Fig. 2, A–C). In these experiments, 4T1 cells were first permeabilized and were then offered metabolic substrates Pyr (Pyr/Mal; Fig. 2A), glutamate (Glu/Mal, Fig. 2B), or succinate (Fig. 2C), and the resulting OCR was observed. As described previously, Mal and DCA were included in the substrate milieu of glutamate respiration experiments. […] To validate that inhibition of Pyr respiration is due to mitochondrial Pyr uptake and not other Pyr-processing enzymes (i.e., Pyr dehydrogenase), a parallel experiment using methyl pyruvate (MePyr) was employed (Fig. 2, E and F). MePyr is permeable to the mitochondrial membranes, where in the matrix, mitochondrial esterase hydrolysis activity provides Pyr.
(§2) Permeabilized cell assays were performed using rPFO as described previously. 4T1 cells were seeded (20,000 cells/well) onto Seahorse XFe96 well plates and incubated overnight in growth media at 37 °C and 5% CO2 for adherence. On the day of the assay, growth media were aspirated and replaced with MAS buffer (70 mM sucrose, 220 mM mannitol, 10 mM potassium phosphate monobasic, 5 mM magnesium chloride, 2 mM Hepes, and 1 mM EGTA) after 3X rinse of growth media to remove serum and endogenous metabolic substrates, and incubated at 37 °C in a non-CO2 incubator. Respective inhibitor and substrate milieu's were prepared in MAS buffer for port injections A–D at 8X, 9X, 10X, and 11X the target cell concentrations to account for intrinsic dilution factor of in situ injections of each port. […] Final substrate concentrations for specific tests were as follows: (5 mM Pyr , 0.5 mM Mal, 2 mM DCA; 10 mM glutamate, 0.5 mM Mal, 2 mM DCA; 10 mM succinate, 2 μM rotenone; 20 mM methyl Pyr, 5 mM Pyr, 0.5 mM Mal, and 2 mM DCA). ATP rate assays and mitochondrial stress tests were performed according to the manufacturer's (Agilent) instructions.

[2] = target: T1, mitochondrial pyruvate carrier (MPC) (Mus musculus, UniProt P63030+Q9D023); assay: Seahorse XFe96 Pyr-driven respiration in rPFO-permeabilized 4T1 cells; assay type: cell-based, murine; conditions: for effect on Pyr-driven respiration: Pyr/Mal, candidate compounds 1 μM
T1 construct: host or cells: 4T1 murine breast cancer cells, rPFO-permeabilized
T1 sequence (P63030 1-109): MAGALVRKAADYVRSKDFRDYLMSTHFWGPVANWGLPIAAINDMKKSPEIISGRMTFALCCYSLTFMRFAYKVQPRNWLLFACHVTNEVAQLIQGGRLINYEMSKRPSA
T1 sequence (Q9D023 1-127): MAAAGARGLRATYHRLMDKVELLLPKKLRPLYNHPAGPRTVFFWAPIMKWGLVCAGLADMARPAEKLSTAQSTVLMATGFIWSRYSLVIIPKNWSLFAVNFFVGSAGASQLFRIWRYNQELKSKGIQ
Experimental: After validating the ability of rPFO to permeabilize 4T1 cells without damaging mitochondria, we sought to investigate the ability of candidate compounds to inhibit Pyr-driven respiration in these cells (Fig. 1, D–G). In this regard, 4T1 cells were seeded in Seahorse XFe96 well plates and were incubated to reach confluence (∼18–24 h) in growth media (+serum). Growth media were then aspirated, and cells were washed with MAS buffer to remove serum and endogenous metabolic substrates. Serum- and substrate-starved cells were then incubated for equilibration in MAS buffer in a non-CO2 incubator. Inhibitors, rPFO, and substrate milieus were prepared in MAS buffer to be injected in succession to allow for real-time observation of the effects of compound-treated cultures on oxygen consumption rates (OCRs) when compared with vehicle (dimethyl sulfoxide [DMSO])-treated cells. Equilibrated intact cells were allowed to establish basal respiratory rates, followed by the injection of candidate compounds C1 to C4 at varying dose-titrated concentrations, respectively, and acute decreases in OCR were observed (Fig. 1, D–G). Compound exposure was performed in intact cells to avoid influence of rPFO on acute cellular targets. Cells were then exposed to rPFO, followed by the carbonyl cyanide-p-trifluoromethoxyphenylhydrazone (FCCP)–stimulated Pyr substrate milieu, which consisted of Pyr, malate (Mal), and dichloroacetate (DCA) to fuel uninhibited Pyr respiratory flux and maximal respiration. Mal and DCA were included to allow for continuous TCA cycle function without acetyl CoA feedback–mediated inhibition (Mal) or Pyr dehydrogenase–regulated inhibition (DCA) of Pyr uptake. Here, we observed a dose-dependent inhibition of Pyr-driven respiration in cells treated with the candidate compounds, allowing for logarithmic dose–response curves to be generated, and 50% inhibitory concentrations (IC50) to be calculated (Fig. 1, D–G). Finally, complex I and […] were injected to halt respiration and end the assay. […] In this regard, the fluoro-aminocarboxycoumarin derivative C4 has been designated as the lead candidate for further investigation.
as §2

[3] = system: glutamate-driven respiration in 4T1 cells; assay: Seahorse glutamate-driven respiration in permeabilized 4T1 cells; assay type: cell-based, murine; conditions: Glu/Mal, candidate compounds 1 μM
Excerpt: as §1, §2

[4] = target: T1, mitochondrial pyruvate carrier (MPC); assay: Michaelis-Menten kinetics of mitochondrial pyruvate uptake (Seahorse OCR); assay type: cell-based, murine; conditions: permeabilized 4T1 cells; 10 nM inhibitor
Experimental: To further investigate the type of inhibition, we employed Michaelis–Menten experiments in modified Seahorse XFe96–based assays similar to described previously, and based on the model that Pyr uptake is directly coupled to NADH oxidation and oxygen consumption (Fig. 3A). In these experiments, 4T1 cells were permeabilized and were then administered varying concentrations of Pyr in the presence or the absence of 10 nM C3 or C4, respectively (Fig. 3, B–F). A rise in OCR indicated Pyr-driven respiration, where subsequent addition of FCCP stimulated maximal respiration, and substrate-dependent increases in OCR were observed and normalized to protein content (Fig. 3, B–F). In this regard, Michaelis–Menten curves were generated using the FCCP-stimulated OCR in C3- or C4-treated and -untreated cells where Michaelis–Menten parameters of maximal velocity (Vmax) and half-maximal substrate concentrations (Km) were calculated (Fig. 3, E–G). Michaelis–Menten assumptions include direct and irreversible substrate and carrier interaction that results in the OCRs and is analogous to standard enzymatic Michaelis–Menten models (Fig. 3A). […] Thus, C3 decreased the Vmax and increased the Km, not consistent with competitive inhibition where high substrate concentrations titrate out the inhibitor to reach intrinsic Vmax values. However, potential covalent bonding of inhibitor may limit the ability of Pyr to displace C3 from the active site, resulting in the observed “mixed” mode of inhibition.

[5] = Intrinsic CL in human liver microsomes; assay type: in vitro ADME; conditions: human, liver microsomes; exceeding the experimental endpoints
[6] = target: T1, mitochondrial pyruvate carrier (MPC); assay: Methyl pyruvate reversal of inhibited Pyr-driven respiration; assay type: cell-based, murine; conditions: permeabilized 4T1 cells; 20 mM methyl Pyr
Excerpt: as §1
Permeabilized cell assays were performed using rPFO as described previously. […]

[7] = average ± SEM, read-out: IC50, inhibition of Pyr-driven respiration (Fig. 1G, unit inferred)
[8] = read-out: IC50, inhibition of Pyr-driven respiration

Row | SMILES | effect on succinate-driven respiration [1] | effect on Pyr-driven respiration [2] | IC50 [2, 7] [nM] | IC50 [2, 8] [nM] | effect on glutamate-driven respiration [3] | mode of inhibition [4] | half-life [5] [h] | reversal of Pyr-driven respiration effects by methyl pyruvate [6] | Vmax of Pyr-driven FCCP-stimulated OCR [4] [pmol/min]
1 | CN(c1ccc(F)cc1)c1ccc2cc(C(=O)O)c(=O)oc2c1 [C2, 7-((4-fluorophenyl)(methyl)amino)-2-oxo-2H-chromene-3-carboxylic acid] | without substantial effects | specifically inhibits | 148 ± 8.9 | 147 | without substantial effects | – | – | – | –
2 | O=C(O)c1cc2ccc(N(c3ccc(F)cc3)c3ccc(F)cc3)cc2oc1=O [C1, 7-(bis(4-fluorophenyl)amino)-2-oxo-2H-chromene-3-carboxylic acid] | – | – | – | > 1000 | – | – | – | – | –
3 | CN(Cc1ccc(F)cc1)c1ccc2cc(C(=O)O)c(=O)oc2c1 [C4, 7-((4-fluorobenzyl)(methyl)amino)-2-oxo-2H-chromene-3-carboxylic acid] | without substantial effects | specifically inhibits | 16.6 ± 4.8 | 16 | without substantial effects | competitive | – | – | –
4 | CN(Cc1ccccc1)c1ccc2cc(C(=O)O)c(=O)oc2c1 [C3, 7-(benzyl(methyl)amino)-2-oxo-2H-chromene-3-carboxylic acid] | without substantial effects | specifically inhibits | 18.3 ± 0.8 | 18 | without substantial effects | mixed | > 2 | completely reversed | 10.8
